Tests used:
[1] = system: trichoid sensillum housed odor receptor, which is also activated by DEET; settings: compared with DEET; cited from earlier work
[2] = system: Aedes aegypti; assay: protection time assay for mosquito repellency; assay type: in vivo; settings: standardized to 25 μmol/cm^2; assigned, not measured
Method: In two recent studies, 34 N-acylpiperdine and 38 carboxamide mosquito repellent candidates were synthesized and compared for their effectiveness. […] The mode of repellency for all of these compounds is unknown. As the N-acylpiperdines and some of the carboxamides are larger and likely have a lower vapor pressure than DEET, it is possible that the increased protection times of these compounds is due to a slower evaporation rate.
As these odors were tested using different approaches, a single unit of measure was needed to standardize them for training. Since the largest proportion of odors was measured in protection time, all odors were converted into this single standard of protection time in days to match with the Katritzky data at a concentration of 25 μmol/cm^2. Picaridin, which is believed to have a similar protection to DEET, was given the same protection time as DEET (17.5 days). […] While this is a very rough approximation, it is sufficiently accurate for training.

[3] = system: insects; settings: in vivo; cited from earlier work
[4] = in vivo; cited from earlier work
[5] = system: Aedes aegypti; settings: 25 μmol/cm^2, Katritzky data; cited from earlier work
[6] = biological target: acetylcholoinesterase (Homo sapiens, UniProt P22303); settings: in humans, recent study; cited from earlier work
acetylcholoinesterase, sequence (P22303 32-614): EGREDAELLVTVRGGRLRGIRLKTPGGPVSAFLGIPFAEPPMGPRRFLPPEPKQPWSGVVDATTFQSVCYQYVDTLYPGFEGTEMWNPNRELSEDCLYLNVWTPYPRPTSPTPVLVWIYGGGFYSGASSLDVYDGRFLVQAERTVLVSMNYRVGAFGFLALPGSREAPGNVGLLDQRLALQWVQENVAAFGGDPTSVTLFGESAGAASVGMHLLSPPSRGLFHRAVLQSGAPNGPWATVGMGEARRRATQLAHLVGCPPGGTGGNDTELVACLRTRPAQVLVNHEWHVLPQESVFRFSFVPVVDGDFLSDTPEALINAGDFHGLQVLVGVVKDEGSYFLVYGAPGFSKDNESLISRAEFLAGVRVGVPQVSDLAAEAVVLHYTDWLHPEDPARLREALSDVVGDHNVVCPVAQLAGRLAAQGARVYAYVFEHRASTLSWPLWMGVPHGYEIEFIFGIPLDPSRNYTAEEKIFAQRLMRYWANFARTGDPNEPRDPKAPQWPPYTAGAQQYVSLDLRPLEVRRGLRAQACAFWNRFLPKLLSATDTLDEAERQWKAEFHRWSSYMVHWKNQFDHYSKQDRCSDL

CC(C)[C@]12CC(=O)[C@H](C)[C@H]1C2 [thujone]
activation of DEET-activated odor receptor / DEET receptive neuron [1]: more strongly than DEET

CCC(C)OC(=O)N1CCCCC1CCO (stereo not shown) [Icaridin]
protection time given for training (same as DEET, very rough approximation) [2]: 17.5 days | effectiveness at repelling insects compared with DEET [3]: as effective as DEET | irritation [4]: less irritating than DEET

CC12CCC(CC1)C(C)(C)O2 [Eucalyptol]
protection time given for training (same as DEET, very rough approximation) [2]: 17.5 days | activation of DEET-activated odor receptor / DEET receptive neuron [1]: more strongly than DEET

C=CC(C)(O)CCC=C(C)C (stereo not shown) [linalool]
protection time given for training (same as DEET, very rough approximation) [2]: 17.5 days | activation of DEET-activated odor receptor / DEET receptive neuron [1]: more strongly than DEET

CC(C)[C@]12CC(=O)[C@H](C)[C@H]1C2 [alpha-thujone]
protection time given for training (same as DEET, very rough approximation) [2]: 17.5 days

CCN(CC)C(=O)c1cccc(C)c1 [DEET, N,N-diethyl-3-methylbenzamide]
protection time [5]: 17.5 days | inhibition of acetylcholinesterase [6]: inhibit | irritation [4]: act as an irritant

CC1C(=O)CC2(C(C)C)CC12 (stereo not drawn) [beta-thujone]
protection time given for training (same as DEET, very rough approximation) [2]: 17.5 days

— patent US10292396B2, “Methods for assessing repellant quality of organic materials and methods and compositions for repelling arthropods” (priority 2011, dated 2019)
